According to patent publication US20260345742A1, “SYNTHETIC SURFACTANTS FOR INHIBITING CORONAVIRUS INFECTION” (priority 2022, published 2026):
Read-outs that look alike come from different tables or passages of the source. Ends that are not written are not given here.

Tests used:
ACE2 = ACE2 (Homo sapiens, UniProt Q9BYF1); assay: SPR binding (Biacore T200) of ACE2 to chip-linked biotinylated B-YL
[1] = Aqueous solution solubility; format: physicochemical; settings: stated as the reason for biotinylation
SARS-CoV-2 RBD = SARS-CoV-2 RBD (Severe acute respiratory syndrome coronavirus 2, UniProt P0DTC2); assay: SPR binding (Biacore T200) of SARS-CoV-2 RBD to chip-linked biotinylated B-YL
Experimental: FIG. 3. Surface plasmon resonance (SPR) sensorgrams of rbCovid-19-RBD protein construct and human ACE2 receptor binding to immobilized B-YL peptide. The B-YL peptide was biotinylated to facilitate attachment to the Biacore chip as described in Methodology. Solutions of 1 μM recombinant protein in HBS-EP buffer (10 mM Hepes, pH 7.4, 150 mM NaCl, 3 mM EDTA, 0.005% surfactant P20) were then flowed over the respective chip-linked peptides. The concentration dependent binding of the viral RBD construct (A) and the human ACE-2 receptor (B) to the B-YL lung surfactant peptide are shown with the SPR response indicated in relative response units (RU) on the graph's Y-axis.
One of the best in vitro determinations of the binding of proteins and peptides to one another is by surface plasmon resonance (SPR). This technique allows the direct measurement of the binding of a peptide or protein by attaching one protein to a sensor chip surface and flowing a solution containing a second protein over the surface. The binding affinities derived from such measurements are very similar to those observed in vivo.
The binding affinity of the B-YL lung surfactant peptide to the coronavirus recombinant spike protein construct of SARS-CoV-2 (viral spike protein amino acid sequence) that included the Receptor Binding Domain (RBD) was measured with SPR spectroscopy using a Biacore T200 system (GE Healthcare Bio-Sciences Corp, Piscataway, NJ 08855).
B-YL peptide binding to the recombinant SARS-CoV-2 RBD domain dissolved in a series of seven concentrations (1,000, 500, 250, 125, 62.5, 31.25 and 0 nM) in the analyte and was determined from the sensorgrams, in which arbitrary response units (RUS) are recorded as a function of time.
In Table 1, association and dissociation kinetic rate constants (kon, koff) and equilibrium dissociation constants (KD) were calculated from surface plasmon resonance (SPR) kinetic measurements for aqueous SARS-CoV-2 RBD expressed protein flowing past B-YL surfactant peptide on the Biacore chip. The recombinant SARS-CoV-2 RBD protein was dissolved in running buffer and was flowed past the sensor chip with a BiocoreT200 system (Methods). Kinetic rate constants and equilibrium dissociation constants were determined from curve fitting analysis of SPR traccs.
The binding affinities of the B-YL lung surfactant peptide to the Angiotensin-Converting Enzyme 2 (ACE-2) receptor recombinant construct (human amino acid sequence) and the coronavirus recombinant spike protein construct of Covid-19 (viral spike protein amino acid sequence) that included the Receptor Binding Domain (RBD) were measured with surface plasmon resonance (SPR) spectroscopy using a Biacore T200 system (GE Healthcare Bio-Sciences Corp, Piscataway, NJ 08855).
The SPR binding study was accomplished by associating the ligand (B-YL peptide) immobilized on the SPR sensor surface, and the solute containing the ACE-2 or the Covid-19 protein construct was then flowed past the sensor linked molecule. The binding of the solute to the sensor surface ligand results in an evanescent sensor response, is measured in Response Units (RU) that are proportional to the bound mass.
In Table 3, Association and dissociation kinetic rate constants (kon, koff) and equilibrium dissociation constants (KD) were calculated from surface plasmon resonance (SPR) kinetic measurements for aqueous RBD, and ACE2 flowing past BYL attached to a Biacore chip. Proteins were dissolved in running buffer (10 mM HEPES, 150 mM NaCl, 3 mM EDTA, 0.005% Surfactant P20, pH 7.4) and were flowed past biotin linked B-YL peptide construct on a CSM sensor chip with a Biacore system (Methodology). Kinetic rate constants and equilibrium dissociation constants were determined from curve fitting analysis of SPR traces.

Sequence of ACE2 (Q9BYF1 18-805): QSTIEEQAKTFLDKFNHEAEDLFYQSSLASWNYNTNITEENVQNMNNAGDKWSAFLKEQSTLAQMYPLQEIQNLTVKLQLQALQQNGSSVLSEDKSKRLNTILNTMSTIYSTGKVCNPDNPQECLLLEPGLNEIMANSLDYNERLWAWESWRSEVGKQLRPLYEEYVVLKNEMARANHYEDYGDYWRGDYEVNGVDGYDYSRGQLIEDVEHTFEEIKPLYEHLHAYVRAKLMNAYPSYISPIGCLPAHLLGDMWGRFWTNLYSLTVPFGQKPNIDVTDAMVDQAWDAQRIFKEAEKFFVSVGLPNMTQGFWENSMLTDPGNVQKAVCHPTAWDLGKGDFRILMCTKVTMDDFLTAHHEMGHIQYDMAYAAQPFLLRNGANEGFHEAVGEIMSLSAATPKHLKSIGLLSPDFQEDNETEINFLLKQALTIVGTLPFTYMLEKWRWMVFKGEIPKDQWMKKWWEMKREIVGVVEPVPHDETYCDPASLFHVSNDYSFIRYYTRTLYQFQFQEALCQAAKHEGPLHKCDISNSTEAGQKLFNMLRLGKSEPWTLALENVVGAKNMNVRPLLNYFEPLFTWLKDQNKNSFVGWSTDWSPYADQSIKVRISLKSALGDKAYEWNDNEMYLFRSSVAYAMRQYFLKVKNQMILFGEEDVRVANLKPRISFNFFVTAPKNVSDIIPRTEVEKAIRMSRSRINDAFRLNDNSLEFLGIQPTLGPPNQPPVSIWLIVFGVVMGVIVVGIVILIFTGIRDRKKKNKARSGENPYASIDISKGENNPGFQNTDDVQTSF

FPIPLPYYWLYRALIKRIQALIPKGGRLLPQLVYRLVLRYS [B-YL]
Kd (ACE2): 4.37 µM | koff (ACE2; pH 7.4): 0.013 s⁻¹ | kon (ACE2; pH 7.4): 2980 M⁻¹ s⁻¹ | aqueous solution solubility [1]: limited aqueous solution solubility | koff (SARS-CoV-2 RBD): 5.08 × 10^−02 1/s | Kd (SARS-CoV-2 RBD; RBD(wt) - B-YL, expt. data - SPR (Table 2)): 57 µM | Kd (SARS-CoV-2 RBD; Table 1, aqueous SARS-CoV-2-RBD over chip-associated biotinylated B-YL, HBS-EP pH 7.4, 37 °C, KD=koff/kon): 56.9 µM | Kd (SARS-CoV-2 RBD; Table 3, aqueous RBD over chip-linked B-YL, pH 7.4, 37 °C, KD=koff/kon): 57 µM | koff (SARS-CoV-2 RBD; pH 7.4): 0.0508 s⁻¹ | kon (SARS-CoV-2 RBD; pH 7.4, Table 1, aqueous SARS-CoV-2-RBD over chip-associated biotinylated B-YL, HBS-EP pH 7.4, 37 °C): 890 M⁻¹ s⁻¹ | kon (SARS-CoV-2 RBD; pH 7.4, Table 3, aqueous RBD over chip-linked B-YL, pH 7.4, 37 °C): 892 M⁻¹ s⁻¹
